According to PMC9329448 (Journal of Experimental Pharmacology, 2022):

Biological target: human dihydroorotate dehydrogenase (HsDHODH) (Homo sapiens, UniProt Q02127)
Assay type: biochemical

Chain of human dihydroorotate dehydrogenase (HsDHODH) (Q02127 whole entry): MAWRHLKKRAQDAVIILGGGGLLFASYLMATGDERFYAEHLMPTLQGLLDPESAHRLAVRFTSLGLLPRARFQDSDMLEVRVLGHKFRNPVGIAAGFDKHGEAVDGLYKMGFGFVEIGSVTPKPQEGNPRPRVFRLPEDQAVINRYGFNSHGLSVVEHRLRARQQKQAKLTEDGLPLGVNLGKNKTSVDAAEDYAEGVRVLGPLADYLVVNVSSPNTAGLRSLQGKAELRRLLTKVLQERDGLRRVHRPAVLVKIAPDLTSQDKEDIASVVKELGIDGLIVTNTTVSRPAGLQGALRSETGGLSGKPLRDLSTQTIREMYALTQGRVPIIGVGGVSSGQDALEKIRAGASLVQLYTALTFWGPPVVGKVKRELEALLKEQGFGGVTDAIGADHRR

Compound: O=C(/C=C/c1ccc(O)c(O)c1)OCCc1ccccc1 [CAPE, caffeic acid phenethyl ester]
- IC50: 121 ± 6.78 µM
